Data taken from patent US10251909B2 (Board of Regents, the University of Texas System, priority 2007, dated 2019).
Read-outs that look alike come from different tables or passages of the source.

How the values were obtained:
[1] = cited from earlier work
[2] = Blood pressure during 5 months of KMgCitrate or potassium chloride with hydrochlorothiazide, 21 normal subjects (Example 1); format: in vivo, Human; settings: for fall in diastolic blood pressure (supine) / fall in systolic blood pressure (supine): 42 mEq K per day with hydrochlorothiazide 50 mg/day, monthly for 5 months versus baseline, normal subjects; for effect on blood pressure: normal subjects given hydrochlorothiazide concurrently for 5 months, as early as one month and as long as 5 months
Excerpt: FIG. 2 graphically illustrates the effect of KMgCitrate (K4MgCit2) on blood pressure in 21 normal subjects. Changes in systolic and diastolic blood pressures from baseline (before treatment) occurring during 5 months of treatment with potassium chloride (KCl) or KMgCitrate with hydrochlorothiazide are shown individually. * p<0.05 from time zero, ** p<0.01.
In the recently published study by Odvina et al. (Am J Therap 13: 101-108, 2006) that examined the value of KMgCitrate in the prevention of thiazide-induced hypomagnesemia, the unpublished data on blood pressure were extracted. Twenty-one normal subjects participated in the trial. All were started on hydrochorothiazide 50 mg/day. Ten subjects took simultaneously KMgCitrate at a dose of 42 mEq K and […] per day, while 11 subjects received potassium chloride (42 mEq/day). Supine blood pressures were taken before and each month for 5 months. FIG. 3 compares the systolic and diastolic blood pressures between the two groups.

[3] = in vivo; cited from earlier work
[4] = cited from earlier work; remark: listed apart in the source
[5] = thirty subjects with hypomagnesemia on thiazide alone; cited from earlier work
[6] = both groups, before potassium supplementation; cited from earlier work
[7] = Tolerability of KMgCitrate; format: in vivo; settings: usual dosage about 40 mEq potassium, 20 mEq magnesium, 60 mEq citrate
[8] = cited from earlier work; remark: listed apart in the source
[9] = cited from earlier work; remark: listed apart in the source
[10] = Odvina, 42 mEq K qd; cited from earlier work
[11] = Insulin responsiveness by hyperinsulinemic euglycemic pump procedure, two subjects with uric acid stones (Example 2); format: in vivo, Human; settings: 49 mEq K, 24.5 mEq Mg per day for 4 weeks
Description: In two subjects with uric acid stones, insulin responsiveness was determined before and after KMgCitrate treatment (49 mEq K, 24.5 mEq Mg per day for 4 weeks) by a hyperinsulinemic euglycemic pump procedure. During intravenous infusion of insulin, glucose was infused at a rate sufficient to maintain a constant glucose concentration. Insulin responsiveness was determined from the glucose disposal rate.

[12] = during therapy versus control phase, constant metabolic diet
[13] = during therapy, constant metabolic diet
[14] = 49 mEq K, 24.5 mEq Mg/day for 3 weeks while continuing hydrochlorothiazide 50 mg/day

In the case of `O=C([O-])CC(O)(CC(=O)[O-])C(=O)[O-].[K+].[K+].[K+]` [Potassium citrate, potassium citrate, reference compound], the urinary citrate [1, 12] is given as “did not raise pH or citrate as much”, the “urinary pH” value [1, 12] is given as “did not raise pH or citrate as much” and the urinary magnesium excretion [1, 13] is given as “did not augment”.

With `[Cl-].[K+]` [potassium chloride, reference compound] the “fall in diastolic blood pressure (supine)” value [2] was “trend for systolic and diastolic blood pressures to decrease”, the “fall in systolic blood pressure (supine)” value [2] was “trend for systolic and diastolic blood pressures to decrease” and the “effect on blood pressure” value [2] was “no statistically significant effect”. For the same molecule, the urinary calcium [3] was “has no effect”.

For `NS(=O)(=O)c1cc2c(cc1Cl)NCNS2(=O)=O` [thiazide, hydrochlorothiazide], the “serum potassium concentration on thiazide alone” value ([4]; hydrochlorothiazide 50 mg/day for 3 weeks, normal subjects) is given as “decreased significantly to below the normal range in most subjects”, the “serum magnesium concentration during thiazide alone versus before treatment” value [5] is given as “significantly lower” and the “serum potassium concentration on thiazide alone” value [6] is given as “decreased significantly”.

With `O=C([O-])CC(O)(CC(=O)[O-])C(=O)[O-].O=C([O-])CC(O)(CC(=O)[O-])C(=O)[O-].[K+].[K+].[K+].[K+].[Mg+2]` [KMgCitrate, tetrapotassium monomagnesium dicitrate] the “tolerability / side effect profile” value [7] was “well tolerated, with a low side effect profile”, the “fall in diastolic blood pressure (supine)” value [2] was “significant only in the KMgCitrate group” and the “fall in systolic blood pressure (supine)” value [2] was “significant only in the KMgCitrate group”. For the same molecule, the “effect on blood pressure” value [2] was “significant reduction”, the “relative risk of treatment failure compared with placebo” value ([8]; 42 mEq K, 21 mEq Mg/day for up to 3 years) was 0.16 (95% confidence interval of 0.05-0.46) and the “patients in whom new calculi formed” value ([8]; 42 mEq K, 21 mEq Mg/day for up to 3 years, placebo 63.6%) was 12.6%. The stone formation rate ([8]; randomized trial, patients with calcium oxalate nephrolithiasis) was “dramatically reduced”, the serum potassium concentration [4, 14] was “increased significantly” and the “serum potassium determinations reaching normal limits” value [4, 14] was 81.7%. For the same molecule, the “Increment in Urinary Magnesium” value ([4]; Ruml, 49 mEq K qd) was 38 mg/day, the “Increment in Urinary Potassium” value ([4]; Ruml, 49 mEq K qd) was 33 mEq/day and the “peak excretion rate of urinary potassium” value ([9]; single oral load (KMgCitrate 49 mEq potassium, 24.5 mEq magnesium, 73.5 mEq citrate), timed urine 24 hours, 15 normal volunteers) was “comparable to that of potassium citrate and potassium chloride”. The “peak excretion rate and peak time of urinary magnesium” value ([9]; single oral load, 24.5-25 mEq magnesium, 15 normal volunteers) was “comparable between KMgCitrate and magnesium citrate”, the “cumulative increment in urinary magnesium” value ([9]; single oral load, 24.5-25 mEq magnesium, potassium citrate as control) was “equivalent between KMgCitrate and magnesium citrate” and the “peak time (time to reach peak excretion rate) of urinary potassium” value ([9]; single oral load, 49-50 mEq potassium, 15 normal volunteers) was “about 4 hours”. For the same molecule, the “Increment in Urinary Magnesium” value ([1]; Pak, 49 mEq K qd) was 44 mg/day, the “Increment in Urinary Potassium” value ([1]; Pak, 49 mEq K qd) was 51 mEq/day and the alkali load ([1]; at the same dose of potassium, versus potassium citrate) was “greater alkali load than potassium citrate”. For the same molecule, the “urinary pH” value [1, 12] was “rose from the control phase”, the urinary potassium [1, 12] was “rose from the control phase” and the “inhibitor activity of brushite” value [1, 13] was “increased”. The “inhibitor activity of calcium oxalate” value [1, 13] was “increased”, the “urinary saturation of calcium oxalate (activity product)” value [1, 13] was “reduced” and the “urinary saturation of uric acid (content of undissociated uric acid)” value [1, 13] was “reduced”. For the same molecule, the “Increment in Urinary Magnesium” value [10] was 57 to 63 mg/day, the “Increment in Urinary Potassium” value [10] was 30–50 mEq/day and the “glucose disposal rate after treatment, second patient” value ([11]; 2.2 mg/m^2/min before treatment) was 2.8 mg/m^2/min. For the same molecule, the “glucose disposal rate after treatment, first patient” value ([11]; 3.2 mg/m^2/min before treatment) was 4.3 mg/m^2/min and the insulin responsiveness ([11]; hyperinsulinemic euglycemic pump) was “improved insulin responsiveness”.
